Measured values published in BindingDB's records for doi:10.3109/10799899109064686 (Center For Bio-Pharmaceutical Sciences, 1991).

Assays:
[1] = target: T1, 5-hydroxytryptamine receptor 3A (Mus musculus, UniProt P23979)
T1 sequence (P23979 whole entry): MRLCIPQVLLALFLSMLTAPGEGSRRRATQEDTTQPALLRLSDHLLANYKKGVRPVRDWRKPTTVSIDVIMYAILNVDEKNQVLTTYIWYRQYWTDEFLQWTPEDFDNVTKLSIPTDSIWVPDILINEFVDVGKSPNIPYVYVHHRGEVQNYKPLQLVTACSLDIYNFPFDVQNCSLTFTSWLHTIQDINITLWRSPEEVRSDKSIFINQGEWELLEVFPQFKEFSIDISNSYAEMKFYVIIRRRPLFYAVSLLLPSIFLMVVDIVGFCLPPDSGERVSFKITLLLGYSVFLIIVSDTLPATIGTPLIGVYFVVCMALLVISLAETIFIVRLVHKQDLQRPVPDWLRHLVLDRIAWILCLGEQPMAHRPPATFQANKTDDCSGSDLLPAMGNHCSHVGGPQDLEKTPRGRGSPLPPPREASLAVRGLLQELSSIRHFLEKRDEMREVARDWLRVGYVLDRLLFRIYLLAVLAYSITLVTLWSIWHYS

Adenosine receptor A1 [2] = target: T2, Adenosine receptor A1 (Rattus norvegicus, UniProt P25099)
T2 sequence (P25099 whole entry): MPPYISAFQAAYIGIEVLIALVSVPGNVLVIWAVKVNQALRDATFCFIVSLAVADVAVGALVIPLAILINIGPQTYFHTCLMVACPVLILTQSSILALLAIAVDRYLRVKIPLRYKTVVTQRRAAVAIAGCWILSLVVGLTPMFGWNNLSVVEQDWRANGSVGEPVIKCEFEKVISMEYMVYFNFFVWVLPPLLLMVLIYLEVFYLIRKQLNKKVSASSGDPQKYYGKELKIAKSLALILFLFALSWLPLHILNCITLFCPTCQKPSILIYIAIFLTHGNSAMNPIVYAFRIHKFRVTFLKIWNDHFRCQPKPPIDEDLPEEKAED

[3] = target: 5-hydroxytryptamine 1D receptor (Bos taurus, UniProt Q8MI13)
Sequence of 5-hydroxytryptamine 1D receptor (Q8MI13 whole entry): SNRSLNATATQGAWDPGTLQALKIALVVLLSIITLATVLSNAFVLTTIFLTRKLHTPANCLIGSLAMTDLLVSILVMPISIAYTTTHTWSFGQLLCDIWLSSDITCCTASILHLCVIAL

[4] = target: T3, Alpha-1A adrenergic receptor (Rattus norvegicus, UniProt P43140)
T3 sequence (P43140 whole entry): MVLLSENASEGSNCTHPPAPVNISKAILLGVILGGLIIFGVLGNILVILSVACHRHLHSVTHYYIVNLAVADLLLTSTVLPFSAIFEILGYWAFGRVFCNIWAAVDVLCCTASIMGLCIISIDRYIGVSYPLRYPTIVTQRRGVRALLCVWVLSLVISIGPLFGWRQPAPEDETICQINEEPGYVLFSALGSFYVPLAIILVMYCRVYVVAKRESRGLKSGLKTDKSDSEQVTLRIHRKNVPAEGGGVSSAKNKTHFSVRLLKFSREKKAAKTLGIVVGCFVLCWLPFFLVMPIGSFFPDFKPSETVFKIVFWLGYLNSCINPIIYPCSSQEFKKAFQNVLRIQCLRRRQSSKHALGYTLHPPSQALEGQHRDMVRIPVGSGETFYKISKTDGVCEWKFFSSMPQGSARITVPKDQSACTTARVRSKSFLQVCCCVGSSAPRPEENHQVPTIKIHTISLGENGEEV

Adenosine receptor A1 [5] = target: T4, Adenosine receptor A1 (Bos taurus, UniProt P28190)
T4 sequence (P28190 whole entry): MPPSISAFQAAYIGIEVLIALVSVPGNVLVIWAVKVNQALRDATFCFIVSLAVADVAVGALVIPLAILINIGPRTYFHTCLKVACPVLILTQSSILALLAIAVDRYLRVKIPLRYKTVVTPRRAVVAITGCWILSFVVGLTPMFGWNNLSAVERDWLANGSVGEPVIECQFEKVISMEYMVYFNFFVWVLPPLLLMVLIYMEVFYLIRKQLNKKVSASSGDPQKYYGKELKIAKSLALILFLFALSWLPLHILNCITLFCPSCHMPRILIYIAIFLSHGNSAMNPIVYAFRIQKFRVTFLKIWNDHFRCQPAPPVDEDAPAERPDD

[6] = target: T5, Alpha-2C adrenergic receptor (Rattus norvegicus, UniProt P22086)
T5 sequence (P22086 whole entry): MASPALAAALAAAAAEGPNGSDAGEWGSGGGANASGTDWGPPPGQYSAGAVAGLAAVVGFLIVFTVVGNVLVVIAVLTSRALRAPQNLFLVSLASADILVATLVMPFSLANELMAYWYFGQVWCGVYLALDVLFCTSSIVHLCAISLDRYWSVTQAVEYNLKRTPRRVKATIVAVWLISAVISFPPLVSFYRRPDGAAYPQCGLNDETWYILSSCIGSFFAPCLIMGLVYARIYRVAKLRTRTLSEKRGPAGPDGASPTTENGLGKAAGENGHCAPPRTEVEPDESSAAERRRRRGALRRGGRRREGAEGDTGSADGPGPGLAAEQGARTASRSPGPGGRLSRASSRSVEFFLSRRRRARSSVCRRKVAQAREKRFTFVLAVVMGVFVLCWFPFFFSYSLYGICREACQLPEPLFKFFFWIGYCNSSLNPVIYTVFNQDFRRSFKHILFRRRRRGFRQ

[7] = target: T6, Muscarinic acetylcholine receptor M1 (Rattus norvegicus, UniProt P08482)
T6 sequence (P08482 whole entry): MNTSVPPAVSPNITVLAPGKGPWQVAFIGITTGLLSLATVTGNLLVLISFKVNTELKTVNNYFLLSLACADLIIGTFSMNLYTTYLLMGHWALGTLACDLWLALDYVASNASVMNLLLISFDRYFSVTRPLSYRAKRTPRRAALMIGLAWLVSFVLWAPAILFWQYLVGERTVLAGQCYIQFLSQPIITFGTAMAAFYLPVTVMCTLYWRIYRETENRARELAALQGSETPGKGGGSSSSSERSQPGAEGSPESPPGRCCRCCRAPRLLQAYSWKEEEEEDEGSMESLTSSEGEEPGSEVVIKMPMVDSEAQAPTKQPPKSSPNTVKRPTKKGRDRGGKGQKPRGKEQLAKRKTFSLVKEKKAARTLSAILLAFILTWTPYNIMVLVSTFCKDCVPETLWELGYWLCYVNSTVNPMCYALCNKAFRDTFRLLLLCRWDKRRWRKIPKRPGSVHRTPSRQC

[8] = target: Muscarinic acetylcholine receptor M3 (Rattus norvegicus, UniProt P08483)
Sequence of Muscarinic acetylcholine receptor M3 (P08483 whole entry): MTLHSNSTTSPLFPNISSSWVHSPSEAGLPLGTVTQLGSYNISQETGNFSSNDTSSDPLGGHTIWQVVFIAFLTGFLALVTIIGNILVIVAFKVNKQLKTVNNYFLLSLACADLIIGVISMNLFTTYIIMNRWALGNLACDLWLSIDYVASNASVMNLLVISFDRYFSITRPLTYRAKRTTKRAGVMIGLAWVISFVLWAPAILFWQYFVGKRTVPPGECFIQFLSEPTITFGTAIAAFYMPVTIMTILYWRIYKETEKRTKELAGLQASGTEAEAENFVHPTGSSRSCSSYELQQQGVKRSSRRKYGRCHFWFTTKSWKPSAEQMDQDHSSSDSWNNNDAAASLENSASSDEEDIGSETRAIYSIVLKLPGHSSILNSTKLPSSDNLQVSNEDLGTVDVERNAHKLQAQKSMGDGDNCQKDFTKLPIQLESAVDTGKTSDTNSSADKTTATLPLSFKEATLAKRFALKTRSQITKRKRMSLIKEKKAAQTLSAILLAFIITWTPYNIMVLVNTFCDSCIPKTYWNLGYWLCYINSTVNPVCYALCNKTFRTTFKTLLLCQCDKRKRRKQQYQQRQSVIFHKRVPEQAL

[9] = target: Substance-P receptor (Rattus norvegicus) (UniProt P14600)
Sequence of Substance-P receptor (Rattus norvegicus) (P14600 whole entry, looked up): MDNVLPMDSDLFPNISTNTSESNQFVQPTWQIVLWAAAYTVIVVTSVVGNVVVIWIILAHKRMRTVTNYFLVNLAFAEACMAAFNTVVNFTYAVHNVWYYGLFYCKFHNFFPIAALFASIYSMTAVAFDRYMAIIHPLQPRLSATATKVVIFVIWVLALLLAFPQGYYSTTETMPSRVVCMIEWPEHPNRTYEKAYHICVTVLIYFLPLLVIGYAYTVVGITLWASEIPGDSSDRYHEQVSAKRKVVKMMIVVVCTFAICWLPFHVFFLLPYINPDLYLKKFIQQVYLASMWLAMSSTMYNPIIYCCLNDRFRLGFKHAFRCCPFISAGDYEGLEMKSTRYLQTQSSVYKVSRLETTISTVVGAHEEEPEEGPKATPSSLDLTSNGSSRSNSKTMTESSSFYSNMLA

Compound	Ki [1] [µM]	Ki (Adenosine receptor A1 [2]) [µM]	Ki [3] [µM]	Ki [4] [µM]	Ki (Adenosine receptor A1 [5]) [µM]	Ki [6] [µM]	Ki [7] [µM]	Ki [8] [µM]	Ki [9] [µM]
N=C(N)NC(=O)c1nc(Cl)c(N2CCCCCC2)nc1N	> 10	1.2	> 10	> 10	0.41	5.2	3.6	4.7	> 10
N=C(N)NC(=O)c1nc(Cl)c(N)nc1N [3,5-diamino-N-carbamimidoyl-6-chloropyrazine-2-carboxamide]	> 10	11	> 10	> 10	2	> 10	> 10	> 10	> 10
NC(=NCc1ccccc1)NC(=O)c1nc(Cl)c(N)nc1N [NSC_108107]	2.2	0.98	> 10	2	0.65	2.2	2.9	2.8	> 10
